The assay addresses T1, NLK (Homo sapiens, UniProt Q9UBE8).
T1 sequence (Q9UBE8 1-527): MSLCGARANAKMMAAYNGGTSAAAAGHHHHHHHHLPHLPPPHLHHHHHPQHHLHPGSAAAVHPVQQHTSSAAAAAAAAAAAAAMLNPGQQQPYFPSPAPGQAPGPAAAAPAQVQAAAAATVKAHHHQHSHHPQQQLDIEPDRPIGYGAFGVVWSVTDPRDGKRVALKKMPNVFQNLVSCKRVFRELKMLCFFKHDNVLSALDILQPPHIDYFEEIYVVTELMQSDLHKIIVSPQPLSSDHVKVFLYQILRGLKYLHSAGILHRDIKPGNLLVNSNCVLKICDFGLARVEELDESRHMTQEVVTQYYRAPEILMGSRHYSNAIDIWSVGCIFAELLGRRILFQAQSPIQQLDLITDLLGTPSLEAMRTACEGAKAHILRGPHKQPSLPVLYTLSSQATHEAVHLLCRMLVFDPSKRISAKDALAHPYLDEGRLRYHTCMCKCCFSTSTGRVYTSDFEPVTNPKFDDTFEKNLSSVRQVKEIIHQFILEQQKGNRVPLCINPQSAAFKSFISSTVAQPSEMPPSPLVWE
Kind of assay: NLK in vitro kinase assay, compound added to active NLK immunopurified from Kp53A1 cells. Conditions: for NLK activity with compound added to activated NLK in in vitro kinase assay: 0, 50 nM, 50 μM or 50 mM, 30 mins. In kind it is biochemical. Details: inhibition of NLK kinase activity in vitro: dose or concentration left out as unconfirmed. The protocol: FIG. 6. […] (a) Schematic of assay utilized to screen compounds for effects on erythroid progenitor cell expansion. Lin-Kit+fetal liver cells were obtained from mouse embryos expressing tet-on shRNA against RPS19, at day E14.5-15.5. Cells were plated at 2000 cell per well in 96-well plates in the presence or absence of doxycycline. Relative amounts of live cells were quantified by luciferase-based Cell titer-Glo® assay. (b) TGFβR1 inhibitors including SB431542 were assessed for their ability to increase cell expansion in RPS19-insuffiency. As a control, untreated (no doxycycline) is represented at the far left while all other samples were treated with doxycycline to induce RPS19-insufficiency. (c) Kit+ erythroid progenitors were grown in the absence of doxycycline and in the presence of 10 μM of indicated compound. As a comparison, samples with no inhibitor added are represented in grey. In addition, cells were either left untreated, or treated with 5 ng/ml of TGFβ1 for 5 days before being subjected to Cell TiterGlo® assay. (d) Schematic indicating Smad2 and Smad3 serve as substrates for activated TGFβR1 while NLK, c-Myb and raptor serve as substrates for activated NLK (upper panel). K562 cells were stimulated with 5 ng/ml TGFβ1 for 10 min and TGFβR1 was immunopurified after cell lysis and protein normalization. TGFβR1 was added to purified Smad2 (middle panel) and Smad3 (lower panel) in the presence of ATP and Mg^2+ at 37° C. for 30 min. As per NLK kinase assay, phosphorylation of substrates was detected by antibody raised against phosphorylated serine residues. Compounds with inhibitory properties against TGFβR1, other TGFB pathway factors, or NLK expression were added to the kinase reactions at concentrations known to inhibit TGFB signaling.
FIG. 10. […] (Panel A) Control (shLuc—grey columns) or RPS19-insufficient (shRPS19-—black columns) progenitors were differentiated in erythroid media alone, vehicle or vehicle containing 50 mM metformin or 5 uM SD208 for 5 days. 5000 cells per treatment were lysed and immunopurified NLK was subjected to in vitro kinase assay to determine phosphorylation potential against 3 recognized NLK substrates; NLK itself (upper), c-Myb (middle) or raptor (bottom). (Panel B) Simultaneously, qRT-PCR was performed to examine NLK (upper) and RPS19 (lower) mRNA expression. (Panel C) Active NLK was purified from activated Kp53A1 cells and subjected to in vitro kinase assay in the presence of 0, 50 nM, 50 μM, or 50 mM metformin or SD208. The phosphorylation of NLK (upper), c-Myb (middle) and raptor (lower) was determined after 30 mins. (Panel D) CD34+ progenitors were transduced with a combination of either shRNA against luciferase (shLuc—grey columns) or RPS19 (shRPS19—black columns) and siRNA against a non-targeting sequence (NT) or NLK (siNLK). After 14 days differentiation in the presence or absence of metformin, cells were counted and the percentage of cells with surface expression of CD235 and CD11b were determined by flow cytometry, to yield the number of CD235+ erythroid (upper) and CD11b+ myeloid (lower) cells. The total number of cells is expressed as a percentage of the number of each cell type in the control (untreated/shLuc/NT). […] Statistics: two-tailed Student's t test, significant *P<0.05
For NLK kinase analysis, cultures were treated as indicated and lysed for 30 min at 4° C. in 750 μl of kinase lysis buffer (50 mM Tris [pH 7.4], 5 mM EDTA, 250 mM NaCl, 0.1% Triton X-100, 50 mM NaF, 0.1 trypsin inhibitor unit of aprotinin per ml, 50 μg of phenylmethylsulfonyl fluoride per ml, 100 μM sodium vanadate, 1 μg of leupeptin per ml).

The mark [1] stands for this setting: panel assessed at 0.1, 1 and 10 μM, compared with TGFβR1 at 1 μM.

Consider five molecules from patent US12403132B2, “Methods of treating bone marrow failure syndromes and compositions for use in the same” (The Board of Trustees of the Leland Stanford Junior …, priority 2020, dated 2025).

Usually inhibition stands for how much of the control response was suppressed.

For the molecule `Cc1cccc(-c2nn3c(c2-c2ccnc4ccc(C(N)=O)cc24)CCC3)n1` [Galunisertib], the inhibition at 1 µM under setting [1] was in the range of 40 to 45%. In the case of `Fc1ccc(Cl)cc1-c1nc(Nc2ccncc2)c2nccnc2n1` [SD208], the “NLK activity with compound added to activated NLK in in vitro kinase assay” value was “robustly inhibited”. For the setting “5 μM”, the “inhibition of NLK phosphorylating NLK” value turned out to be 84.3%, the “inhibition of NLK phosphorylating Raptor” value is on record as 89.1% and the “inhibition of NLK phosphorylating c-Myb” value was 79.7%. Besides, the “inhibition of NLK activity in vitro” value under setting [1] was “approximately 80%”.

With `CC(C)=CCC[C@](C)(O[C@@H]1O[C@H](CO[C@@H]2O[C@H](CO)[C@@H](O)[C@H](O)[C@H]2O)[C@@H](O)[C@H](O)[C@H]1O)[C@H]1CC[C@]2(C)[C@@H]1[C@H](O)C[C@@H]1[C@@]3(C)CC[C@H](O[C@@H]4O[C@H](CO)[C@@H](O)[C@H](O)[C@H]4O[C@@H]4O[C@H](CO)[C@@H](O)[C@H](O)[C@H]4O)C(C)(C)[C@@H]3CC[C@]12C` [ginsenoside Rb1], the “inhibition of NLK kinase activity in vitro” value (substrates Raptor, c-Myb, NLK) is recorded as “failed to inhibit”.

As to `CN(C)C(=N)N=C(N)N` [metformin], the “NLK activity with compound added to activated NLK in in vitro kinase assay” value is “did not influence”. As to `NC(=O)c1ccc(-c2nc(-c3ccc4c(c3)OCO4)c(-c3ccccn3)[nH]2)cc1` [SB431542], the inhibition at 1 µM under setting [1] was roughly 55%.
